Some test systems named below: Acinetobacter baumannii; Staphylococcus aureus; Enterococcus faecalis VR; Enterococcus faecalis; Escherichia coli BW25113; Pseudomonas aeruginosa; Edwardsiella tarda; Escherichia coli JM109; Candida albicans SC5314; Bacillus subtilis.
Assay in all cases: ≥ marks a high value that may be exact or a test limit, other limits are often not marked, values filed in µg/mL are converted to µM
Assay [1] relates to Bacillus subtilis ATCC 6633.
Assay [2] deals with Klebsiella pneumoniae ATCC 27736.
The subject of assay [3] is Pseudomonas aeruginosa ATCC 10662.
In assay [4] the test system is Pseudomonas aeruginosa ATCC BAA-427.
In assay [5] the test system is Staphylococcus epidermidis ATCC 1435.
Assay [6] has as its system Aeromonas salmonicida ATCC 33658.
The subject of assay [7] is Campylobacter jejuni NCTC 11168.
The subject of assay [8] is Enterococcus faecalis ATCC 29212.
Assay [9] has as its system Escherichia coli ATCC 25922 ΔrfaC.
Assay [10] has as its system Escherichia coli ATCC 25922.
Assay [11] concerns Escherichia coli ATCC BAA-2523.
Assay [12] concerns Escherichia coli BW25113 ΔrfaC.
In assay [13] the test system is Flavobacterium psychrophilum 1947.
The subject of assay [14] is Listeria monocytogenes N22-2.
Assay [15] concerns Pseudomonas aeruginosa ATCC 27853.
The test system of assay [16] is Salmonella enterica subsp. enterica serovar Typhimurium LT2.
Assay [17] relates to Staphylococcus aureus ATCC 29213.
Assay [18] has as its system Staphylococcus aureus ATCC 43300.
Assay [19] relates to Yersinia ruckeri 392/2003.
For assay [20], the system named is Streptococcus iniae FP5228.
The test system of assay [21] is Vibrio alginolyticus KCCM 2928.
Assay [22] deals with Vibrio campbellii KCCM 40684.
Assay [23] concerns Vibrio harveyi ATCC 14126.
Assay [24] relates to Vibrio ordalii KCCM 41669.
The subject of assay [25] is Vibrio vulnificus KCTC 2982.
In assay [26] the test system is Candida albicans CCARM 14020.
The test system of assay [27] is Candida albicans CCARM 14021.
In assay [28] the test system is Candida albicans CCARM 14022.
The subject of assay [29] is Cryptococcus neoformans var. grubii H99.
Assay [30] relates to Escherichia coli DH5alpha.
Assay [31] deals with Xanthomonas campestris pv. campestris.
For assay [32], the system named is Xanthomonas oryzae pv. oryzae.
Assay [33] relates to Pseudomonas aeruginosa 0108.
Assay [34] concerns Pseudomonas aeruginosa CGMCC 1.860.

Values after ≈ are worked out from the molar mass of the structure shown. Values joined by “and” are separate entries in the source; they are usually repeats but may differ in a detail not shown here. Equal values may be shown once.

`CC[C@H](C)[C@H](NC(=O)CNC(=O)[C@H](CCCN=C(N)N)NC(=O)[C@H](Cc1ccccc1)NC(=O)[C@@H](NC(=O)[C@H](Cc1cnc[nH]1)NC(=O)[C@H](Cc1cnc[nH]1)NC(=O)[C@H](Cc1ccccc1)NC(=O)[C@@H](N)Cc1ccccc1)[C@@H](C)CC)C(=O)N[C@H](C(=O)N[C@@H](Cc1cnc[nH]1)C(=O)N[C@H](C(=O)NCC(=O)N[C@@H](CCCCN)C(=O)N[C@H](C(=O)N[C@@H](C)C(=O)N[C@@H](Cc1cnc[nH]1)C(=O)N[C@@H](CCCN=C(N)N)C(=O)N[C@@H](CC(C)C)C(=O)N[C@H](C(=O)N[C@H](C(=O)NCC(N)=O)[C@@H](C)O)C(C)C)[C@@H](C)O)C(C)C)C(C)C` [FFHHIFRGIVHVGKTAHRLVTG]: the MIC was 1.23 µM (≈ 3.1 µg/mL) against Acinetobacter baumannii; 8 µM (≈ 20.2 µg/mL) in assay [1]; 8 µM (≈ 20.2 µg/mL) in assay [2]; 9.88 µM (≈ 25 µg/mL) in [3]; 12 µM (≈ 30.3 µg/mL) in assay [4]; 1.23 µM (≈ 3.1 µg/mL) against Staphylococcus aureus. Further, the MIC in assay [5] stood at 0.593 µM (≈ 1.5 µg/mL).
In the case of `CC[C@H](C)[C@H](NC(=O)[C@H](CC(C)C)NC(=O)[C@H](CCCCN)NC(=O)[C@H](CC(C)C)NC(=O)[C@H](CC(C)C)NC(=O)[C@H](CCCCN)NC(=O)[C@H](CCCN=C(N)N)NC(=O)[C@H](Cc1ccccc1)NC(=O)[C@H](CC(C)C)NC(=O)[C@H](CCCCN)NC(=O)[C@H](CCCN=C(N)N)NC(=O)[C@H](CC(C)C)NC(=O)[C@@H](N)CCCCN)C(=O)N[C@@H](CCCN=C(N)N)C(=O)N[C@@H](CCCCN)C(=O)N[C@@H](CC(C)C)C(=O)N[C@@H](CC(C)C)C(=O)N[C@@H](CCCN=C(N)N)C(=O)O` [KLRKLFRKLLKLIRKLLR], the MIC in [6] stood at 19.4 µM (≈ 45.3 µg/mL); in assay [7], 0.856 µM (≈ 2 µg/mL); in assay [8] it was 4.84 µM (≈ 11.3 µg/mL); with Enterococcus faecalis VR it was 16 µM (≈ 37.4 µg/mL); with Enterococcus faecalis, 16 µM (≈ 37.4 µg/mL); in assay [9], 6.85 µM (≈ 16 µg/mL). The minimum inhibitory concentration (MIC) was 9.69 µM and 16 µM in assay [10]; not below 32 µM in assay [11]; 3.42 µM (≈ 8 µg/mL) in assay [12]; 6.85 µM (≈ 16 µg/mL) against Escherichia coli BW25113; not below 110 µM in assay [13]; 6.85 µM (≈ 16 µg/mL) in assay [14]. In addition, the MIC was 9.69 µM and 16 µM in [15]; 16 µM (≈ 37.4 µg/mL) against Pseudomonas aeruginosa; 6.85 µM (≈ 16 µg/mL) in [16]; 6.85 µM and 16 µM in assay [17]; 16 µM (≈ 37.4 µg/mL) in [18]; 4.84 µM (≈ 11.3 µg/mL) in assay [19].
As to `CC[C@H](C)[C@H](NC(=O)[C@H](C)NC(=O)[C@H](Cc1cnc[nH]1)NC(=O)CNC(=O)[C@@H](NC(=O)CNC(=O)[C@H](Cc1cnc[nH]1)NC(=O)[C@H](CC(C)C)NC(=O)[C@H](CC(C)C)NC(=O)[C@H](CCSC)NC(=O)CNC(=O)[C@H](CC(C)C)NC(=O)[C@H](Cc1ccccc1)NC(=O)CNC(=O)[C@H](CCC(=O)O)NC(=O)CN)C(C)C)C(=O)N[C@@H](Cc1cnc[nH]1)C(=O)NCC(=O)N[C@@H](CC(C)C)C(=O)N[C@H](C(=O)N[C@@H](Cc1cnc[nH]1)C(=O)NCC(=O)N[C@@H](CCCCN)C(=O)O)[C@@H](C)CC` [GEGFLGMLLHGVGHAIHGLIHGK], the MIC is not below 354 µM with Edwardsiella tarda; 2.72 µM (≈ 6.4 µg/mL) with Escherichia coli JM109; 0.9 µM (≈ 2.12 µg/mL) in [20]; 1.31 µM (≈ 3.07 µg/mL) in [21]; 1.9 µM (≈ 4.47 µg/mL) in assay [22]; 0.9 µM (≈ 2.12 µg/mL) in assay [23]. Also, the results for the MIC in [24] and in assay [25] were 0.9 µM (≈ 2.12 µg/mL) and 5.52 µM (≈ 13 µg/mL), respectively.
As to `CC(C)C[C@H](NC(=O)CNC(=O)[C@H](Cc1cnc[nH]1)NC(=O)[C@H](Cc1cnc[nH]1)NC(=O)[C@H](CCCN=C(N)N)NC(=O)[C@H](CCCCN)NC(=O)[C@H](C)N)C(=O)N[C@@H](CC(N)=O)C(=O)N[C@@H](CS)C(=O)N[C@@H](C)C(=O)N[C@@H](CCCCN)C(=O)NCC(=O)N[C@H](C(=O)N[C@@H](CC(C)C)C(=O)N[C@@H](C)C(N)=O)C(C)C` [AKRHHGLNCAKGVLA], the minimal inhibitory concentration (MIC) in assay [26] was 14.4 µM (≈ 22.6 µg/mL); in [27] it was 3.59 µM (≈ 5.65 µg/mL); in assay [28], 3.59 µM (≈ 5.65 µg/mL); with Candida albicans SC5314 it was 14.4 µM (≈ 22.6 µg/mL).
Turning to `CC(C)C[C@H](NC(=O)CNC(=O)[C@H](CS)NC(=O)CNC(=O)[C@H](CC(N)=O)NC(=O)CNC(=O)[C@H](Cc1c[nH]c2ccccc12)NC(=O)CNC(=O)[C@H](CCCN=C(N)N)NC(=O)[C@H](C)NC(=O)[C@@H](N)C(C)C)C(=O)N[C@@H](Cc1ccccc1)C(=O)NCC(=O)N[C@@H](CCCCN)C(=O)NCC(=O)NCC(=O)O` [VARGWGNGCGLFGKGG], the MIC is not below 100 µM against Bacillus subtilis; not below 100 µM with Candida albicans SC5314; not below 100 µM in assay [29]; not below 100 µM in assay [30]; more than 100 µM in assay [15]; not below 100 µM in assay [31]. Also, the MIC in assay [32] was not below 100 µM.
Consider `CC[C@H](C)[C@H](NC(=O)[C@H](CCCCN)NC(=O)[C@H](CO)NC(=O)[C@H](CC(C)C)NC(=O)[C@@H](NC(=O)[C@H](CCCCN)NC(=O)[C@H](CCCCN)NC(=O)[C@@H](N)Cc1c[nH]c2ccccc12)[C@@H](C)CC)C(=O)N[C@@H](CCCCN)C(=O)N[C@@H](CCCCN)C(=O)N[C@@H](CC(C)C)C(=O)N[C@@H](CC(C)C)C(=O)N[C@@H](CCCCN)C(N)=O` [WKKILSKIKKLLK], for which the figures for the MIC in [33] and in assay [34] were 6.25 µM (≈ 10.2 µg/mL) and 3.13 µM (≈ 5.09 µg/mL), respectively.

As a reminder, the MIC is the lowest concentration that inhibits growth of the organism.

The values above are taken from DBAASP.
